Patent US7745152B2, “Method for determining genotoxicity” (priority 2004, dated 2010)
Where a name gives a salt, the structure may show the parent alone. Read-outs that look alike come from different tables or passages of the source. *1 amine or outer side, *2 acyl side, *3 side chain or, on linkers, in order; H or OH if unused. Where a SMILES comes first, the peptide text is derived from it. Bridges are numbered along the chain shown (N, C = ends). Roman numbers before positions name the chains, in order. [ ]: non-standard residue; d: D form. Actinocin(9to1) = Cc1c2oc3c(C)ccc(C(=O)[*:1])c3nc-2c(C(=O)[*:2])c(N)c1=O; NMeV = CN[C@H](C(=O)O)C(C)C; Sar = CNCC(=O)O

How the values were obtained:
C2C12 cells [1] = system: C2C12 cells
DDA3 = conditions: cited from earlier work
4833427G06Rik mRNA = assay: RT-PCR assay of 4833427G06Rik (Dog1) mRNA in C2C12 cells; type: cell-based, mouse; conditions: C2C12, 24 hour drug, 18 hour differentiation; relative to vehicle
Dda3 mRNA = assay: RT-PCR assay of Dda3 mRNA in C2C12 cells; type: cell-based, mouse; conditions: C2C12, 24 hour drug, 18 hour differentiation; relative to vehicle
C2C12 cells [2] = assay: Genomic assay: gene expression analysis (Affymetrix Murine Genome MOE430) in C2C12 cells induced to differentiate
Description: Three independent replicates were generated for each drug and time point. Sample processing was carried out according to protocols described in the Affymetrix Expression Analysis Technical Manual. Briefly, total RNA was isolated from cells by the acid guanidinium thiocyanate-phenol-chloroform extraction method (Trizol®, Invitrogen, Carlsbad, Calif.). Twice purified poly(A+) RNA was isolated and reverse transcribed using a T7-promoter coupled oligo(dT) primer, followed by in vitro transcription. The labeled samples were applied to the Affymetrix Murine Genome MOE430 set and were hybridized overnight at 45° C./60 rpm, washed using a FS450 Fluidics station, and scanned on a GS3000 scanner. The resulting image files were analyzed using Affymetrix software (Microarray Analysis Suite version 5.0).
To measure the effect of drug treatment on cellular gene expression, replicate data obtained from each drug and time point were compared with replicates for vehicle-matched controls using the Student t-test. The gene expression levels were Log transformed before applying the Student t-test. The fold change of the average expression level between the control and drug-treated cells was also calculated. […] A gene was considered expressed if the Affymetrix software determined that the gene was “present” in two out of the three replicates. This ensured that true expression changes were identified, and could be distinguished from background variability. Second, the calculated expression change for each of five tested drugs was at least 2 fold, and the calculated p-value for the expression change using the Student t-test was less than 0.01.

[3] = C2C12, 24 h drug (μg/ml: BLEO 0.5, CIS 0.6, ETOP 0.5, MMS 0.008, MNNG 4, VINC 0.6), then 6, 18 or 24 h differentiation, vs DMSO

N.N.[Cl][Pt][Cl] [Cisplatin]
Lowest effective dose (C2C12 cells [1]): 0.15 µg/mL | extreme block of differentiation: cell death in differentiation media (C2C12 cells [1]): the cells begin to die after 3 days in differentiation media

Cc1c2oc3c(C)ccc(C(=O)N[C@@H]4C(=O)N[C@H](C(C)C)C(=O)N5CCC[C@H]5C(=O)N(C)CC(=O)N(C)[C@@H](C(C)C)C(=O)O[C@@H]4C)c3nc-2c(C(=O)N[C@@H]2C(=O)N[C@H](C(C)C)C(=O)N3CCC[C@H]3C(=O)N(C)CC(=O)N(C)[C@@H](C(C)C)C(=O)O[C@@H]2C)c(N)c1=O [Actinomycin D] (I: T[dV]P[Sar][NMeV] / II: T[dV]P[Sar][NMeV]; ester I:1-I:C, II:1-II:C; linker I:N-II:N via Actinocin(9to1))
Lowest effective dose (C2C12 cells [1]): 0.00075 µg/mL

CC(=O)O[C@H]1C(=O)[C@@]2(C)[C@H]([C@H](OC(=O)c3ccccc3)[C@]3(O)C[C@H](OC(=O)[C@H](O)[C@@H](NC(=O)c4ccccc4)c4ccccc4)C(C)=C1C3(C)C)[C@]1(OC(C)=O)CO[C@@H]1C[C@@H]2O [Paclitaxel]
Lowest effective dose (C2C12 cells [1]; mouse, 24 h): 0.002 µg/mL

O=c1[nH]cc(F)c(=O)[nH]1 [5-fluorouracil]
Lowest effective dose (C2C12 cells [1]; mouse, 24 h): 0.0008 µg/mL

CO[C@@]12[C@H](COC(N)=O)C3=C(C(=O)C(C)=C(N)C3=O)N1C[C@@H]1N[C@@H]12 [Mitomycin C]
DDA3 expression in NIH3T3 cells exposed to DNA damaging agents (DDA3): upregulated

CC/C(=C(/CC)c1ccc(O)cc1)c1ccc(O)cc1 [Diethylstilbestrol (DES), Diethylstilbestrol]
Lowest effective dose (C2C12 cells [1]; mouse, 24 h): 1.8 µg/mL

CC[C@]1(O)C[C@@H]2CN(CCc3c([nH]c4ccccc34)[C@@](C(=O)OC)(c3cc4c(cc3OC)N(C)[C@H]3[C@@](O)(C(=O)OC)[C@H](OC(C)=O)[C@]5(CC)C=CCN6CC[C@]43[C@@H]65)C2)C1 [Vinblastine sulfate]
relative expression of 4833427G06Rik mRNA (4833427G06Rik mRNA): much larger increase in expression of these indicator genes than did vincristine | Lowest effective dose (C2C12 cells [1]; mouse, 24 h): 0.0006 µg/mL | relative expression of Dda3 mRNA (Dda3 mRNA): much larger increase in expression of these indicator genes than did vincristine

CC[C@]1(O)C[C@H]2CN(CCc3c([nH]c4ccccc34)[C@@](C(=O)OC)(c3cc4c(cc3OC)N(C=O)[C@H]3[C@@](O)(C(=O)OC)[C@H](OC(C)=O)[C@]5(CC)C=CCN6CC[C@]43[C@@H]65)C2)C1 [Vincristine sulfate]
Fold change in expression: 0610013D04 Rik, RIKEN cDNA (C2C12 cells [2]; [3]): 2.00 fold | Fold change in expression: 1600013K19 Rik, RIKEN cDNA (C2C12 cells [2]; [3]): 0.98 fold | Fold change in expression: 2610005B21 Rik, RIKEN cDNA (C2C12 cells [2]; [3]): 0.81 fold | Fold change in expression: 2610019I03 RIK, RIKEN cDNA (C2C12 cells [2]; [3]): 0.76 fold | Fold change in expression: 2610509G12 Rik, RIKEN cDNA (C2C12 cells [2]; [3]): 0.55 fold | Fold change in expression: 2810417H13 Rik, RIKEN cDNA (C2C12 cells [2]; [3]): 0.96 fold | Fold change in expression: 4833427G06 Rik, RIKEN cDNA (C2C12 cells [2]; [3]): 0.98 fold | Fold change in expression: 6530401L14 Rik, RIKEN cDNA (C2C12 cells [2]; [3]): 0.53 fold | Fold change in expression: 9030617O03 Rik, RIKEN cDNA (C2C12 cells [2]; [3]): 1.20 fold | Fold change in expression: Anxa8, Annexin A8 (C2C12 cells [2]; [3]): 1.80 fold | Fold change in expression: Asflb, ASF1 anti-silencing function 1 homolog B (Saccharomyces) (C2C12 cells [2]; [3]): 0.71 fold | Fold change in expression: Birc5, Baculoviral IAP repeat-containing 5 (C2C12 cells [2]; [3]): 0.87 fold | Fold change in expression: Brca1, Breast cancer 1 (C2C12 cells [2]; [3]): 0.51 fold | Fold change in expression: Calmbp1, Calmodulin binding protein 1 (C2C12 cells [2]; [3]): 0.40 fold | Fold change in expression: Capn6, Calpain 6 (C2C12 cells [2]; [3]): 0.83 fold | Fold change in expression: Ccna2, Cyclin A2 (C2C12 cells [2]; [3]): 0.82 fold | Fold change in expression: Ccng1, Cyclin G1 (C2C12 cells [2]; [3]): 1.80 fold | Fold change in expression: Cilp, Cartilage intermediate layer pro (C2C12 cells [2]; [3]): 0.77 fold | Fold change in expression: Cks2, CDC28 protein kinase regulatory subunit 2 (C2C12 cells [2]; [3]): 0.78 fold | Fold change in expression: D4Ertd421e, DNA segment, Chr 4, ERATO Doi 421, expressed (C2C12 cells [2]; [3]): 0.64 fold | Fold change in expression: Dda3-pending, Differential display and activated by p53 (C2C12 cells [2]; [3]): 2.00 fold | Fold change in expression: E2f7, E2F transcription factor 7 (C2C12 cells [2]; [3]): 0.63 fold | Fold change in expression: E030024M05 Rik, RIKEN cDNA (C2C12 cells [2]; [3]): 1.20 fold | Fold change in expression: E130315B21 Rik, RIKEN cDNA (C2C12 cells [2]; [3]): 0.70 fold | Fold change in expression: Ephx1, Epoxide hydrolase 1 (microsomal xenobiotic hydrolase) (C2C12 cells [2]; [3]): 1.10 fold | Fold change in expression: Fbxo5, f-box only protein 31 (C2C12 cells [2]; [3]): 0.54 fold | Fold change in expression: Foxm1, Forkhead box M1 (C2C12 cells [2]; [3]): 0.68 fold | Fold change in expression: Gmnn, Geminin (C2C12 cells [2]; [3]): 0.65 fold | Fold change in expression: Gnpi, Glucosamine-6-phosphate deaminase (C2C12 cells [2]; [3]): 1.60 fold | Fold change in expression: Hgf, Hepatocyte growth factor (scatter factor) (C2C12 cells [2]; [3]): 2.00 fold | Fold change in expression: Hmgb2, High mobility group box 2 (C2C12 cells [2]; [3]): 0.57 fold | Fold change in expression: Hmgb3, High mobility group box 3 (C2C12 cells [2]; [3]): 0.67 fold | Fold change in expression: Hmmr, Hyaluronan mediated motility receptor (RHAMM) (C2C12 cells [2]; [3]): 0.52 fold | Fold change in expression: Kifl1, Kinesin 11 (C2C12 cells [2]; [3]): 0.46 fold | Fold change in expression: Lek1, Leucine, glutamic acid, lysine family 1 protein (C2C12 cells [2]; [3]): 0.45 fold | Fold change in expression: Ly6e, Lymphocyte antigen 6 complex, locus E (C2C12 cells [2]; [3]): 1.30 fold | Fold change in expression: M-phosph1, M-phase phosphoprotein (C2C12 cells [2]; [3]): 0.37 fold | Fold change in expression: MGC:32192, Mus musculus cDNA clone MGC: 32192 IMAGE: 5006129 (C2C12 cells [2]; [3]): 0.71 fold | Fold change in expression: Mad2l1, MAD2 (mitotic arrest deficient, homolog)-like 1 (yeast) (C2C12 cells [2]; [3]): 0.64 fold | Fold change in expression: Mad3, Max dimerization protein 3 (C2C12 cells [2]; [3]): 0.89 fold | Fold change in expression: Mcm3, Minichromosome maintenance deficient 3 (Saccharomyces) (C2C12 cells [2]; [3]): 0.69 fold | Fold change in expression: Mcmd4, Minichromosome maintenance deficient 4 homolog (C2C12 cells [2]; [3]): 0.64 fold | Fold change in expression: Mki67, Antigen identified by MAb Ki67 (C2C12 cells [2]; [3]): 0.43 fold | Fold change in expression: Mmhead, Mus musculus 15 day embryo head cDNA clone (C2C12 cells [2]; [3]): 0.95 fold | Fold change in expression: Nos3, Nitric oxide synthase 3, endothelial cell (C2C12 cells [2]; [3]): 1.30 fold | Fold change in expression: Np95, Nuclear protein 95 (C2C12 cells [2]; [3]): 0.71 fold | Fold change in expression: Nusap1, Nucleolar and spindle associated protein 1 (C2C12 cells [2]; [3]): 0.56 fold | Fold change in expression: Osbp16, Oxysterol binding protein-like 6 (C2C12 cells [2]; [3]): 1.10 fold | Fold change in expression: Pbk, PDZ binding kinase (C2C12 cells [2]; [3]): 0.62 fold | Fold change in expression: Pcna, Proliferating cell nuclear antigen (C2C12 cells [2]; [3]): 0.70 fold | Fold change in expression: Phex, Phosphate regulating neutral endopeptidase (X chromosome) (C2C12 cells [2]; [3]): 0.67 fold | Fold change in expression: Plf, Proliferin (C2C12 cells [2]; [3]): 1.10 fold | Fold change in expression: Pola1, DNA polymerase alpha 1, 180 kDa (C2C12 cells [2]; [3]): 0.51 fold | Fold change in expression: Prc1, Protein regulator of cytokinesis 1 (C2C12 cells [2]; [3]): 0.63 fold | Fold change in expression: Prelp, Proline arginine-rich end leucine-rich repeat (C2C12 cells [2]; [3]): 0.58 fold | Fold change in expression: Prim1, DNA primase, p49 subunit (C2C12 cells [2]; [3]): 0.54 fold | Fold change in expression: Rad51ap1, RAD51-associated protein 1 (C2C12 cells [2]; [3]): 0.59 fold | Fold change in expression: Rbl1, Retinoblastoma-like 1 (p107) (C2C12 cells [2]; [3]): 0.67 fold | Fold change in expression: Serpine1, Ser (or Cys) proteinase inhibitor, clade E, member 1 (C2C12 cells [2]; [3]): 1.00 fold | Fold change in expression: Sesn2, Sestrin 2 (C2C12 cells [2]; [3]): 2.38 fold | Fold change in expression: Shcbp1, Shc SH2-domain binding protein 1 (C2C12 cells [2]; [3]): 0.52 fold | Fold change in expression: Slc35a5, Solute carrier family 35, member A5 (C2C12 cells [2]; [3]): 1.30 fold | Fold change in expression: Smc2l1, SMC2 structural maintenance of chromosomes 2-like 1 (C2C12 cells [2]; [3]): 0.75 fold | Fold change in expression: Stk18, Serine/threonine kinase 18 (C2C12 cells [2]; [3]): 0.63 fold | Fold change in expression: Tacc3, Transforming, acidic coiled-coil containing protein 3 (C2C12 cells [2]; [3]): 0.73 fold | Fold change in expression: Tagln, Transgelin (smooth muscle 22 protein) (C2C12 cells [2]; [3]): 0.84 fold | Fold change in expression: Tk1, Thymidine kinase 1 (C2C12 cells [2]; [3]): 0.62 fold | Fold change in expression: Top2a, Topoisomerase (DNA) II alpha (C2C12 cells [2]; [3]): 0.52 fold | Fold change in expression: Trp53inp1, Transformation related protein, 53 inducible nuclear protein 1 (C2C12 cells [2]; [3]): 1.60 fold | Fold change in expression: Usp30, Ubiquitin specific protease 30 (C2C12 cells [2]; [3]): 2.00 fold | Fold change in expression: Wig1, Wild-type p53-induced gene 1 (C2C12 cells [2]; [3]): 1.20 fold | pattern of gene expression changes (C2C12 cells [2]; C2C12, vincristine sulfate 0.6 μg/ml 24 h, relative to the five other drugs tested): induced a distinct pattern of gene expression changes relative to the five other drugs tested | Fold change in expression: Slc19a2, Solute carrier family 19 (thiamine transporter), member 2 (C2C12 cells [2]; first Slc19a2 entry (r16), C2C12, 24 h drug (μg/ml: BLEO 0.5, CIS 0.6, ETOP 0.5, MMS 0.008, MNNG 4, VINC 0.6), then 6, 18 or 24 h differentiation, vs DMSO): 1.40 fold | Fold change in expression: Slc19a2, Solute carrier family 19 (thiamine transporter), member 2 (C2C12 cells [2]; second Slc19a2 entry (r72), C2C12, 24 h drug (μg/ml: BLEO 0.5, CIS 0.6, ETOP 0.5, MMS 0.008, MNNG 4, VINC 0.6), then 6, 18 or 24 h differentiation, vs DMSO): 1.10 fold | Lowest effective dose (C2C12 cells [1]; mouse, 24 h): 0.002 µg/mL

COc1cccc2c1C(=O)c1c(O)c3c(c(O)c1C2=O)C[C@@](O)(C(=O)CO)C[C@@H]3O[C@H]1C[C@H](N)[C@H](O)[C@H](C)O1 [adriamycin]
DDA3 expression in NIH3T3 cells exposed to DNA damaging agents (DDA3): upregulated

O=[N+]([O-])c1ccc2c(c1)Cc1ccccc1-2 [2-nitrofluorene]
Lowest effective dose (C2C12 cells [1]; mouse): 5.2 µg/mL

COc1cccc2c1C(=O)c1c(O)c3c(c(O)c1C2=O)C[C@@](O)(C(=O)CO)C[C@@H]3O[C@H]1C[C@H](N)[C@H](O)[C@H](C)O1 [Doxorubicin HCl]
Lowest effective dose (C2C12 cells [1]; mouse, 24 h): 0.005 µg/mL

CCOS(C)(=O)=O [Methanesulfonate ethyl ester (EMS), Methanesulfonate ethyl ester]
Lowest effective dose (C2C12 cells [1]; mouse, 24 h): 100 µg/mL

Bleomycin sulfate
Lowest effective dose (C2C12 cells [1]): 1 µg/mL
